Tests used:
Assay type in all cases: cell-based
[1] = tested on: high HER2 tumor cell line SK-BR-3; assay: Effect of small molecules on SK-BR-3 cell proliferation (CellTiter-Glo); settings: SK-BR-3, 120 h incubation, relative biological activity with Dxd as control sample
Procedure: Study Purpose: In this experiment, cell viability was detected using CellTiter-Glo to evaluate the effects of the small molecule compounds on the proliferation of a high HER2 tumor cell line SK-BR-3, and to analyze the effects of the small molecule compounds on the proliferation of tumor cells.
• (1) Microscopic examination of cells • (2) Digestion: digested using 2 mL 0.25% trypsin for 3 minutes; • (3) Centrifuge: 1000 rpm for 5 min; • (4) Cell counting • A. Cell dilution: • B. Cell plating: in 100 μl/well • C. Incubation: 37° C., 5% CO2, overnight
• (1) Microscopic examination • (2) Drug preparation: • A. Preparation of Buffer for preparation of samples: the desired amount of Buffer for preparation of samples was prepared using the culture medium (10% FBS) for the testing cells; • B. Sample preparation: the sample was diluted from the first concentration to the desired concentration in a 96-well deep-well Plate.
Positive control Puromycin: A stock solution of 2.5 mg/ml was used, and diluted with the cell medium. A dilution of 250-fold was preformed, and then a dilution of 2-fold was preformed when applying the compounds to reach the testing concentration 5 μg/ml for puromycin. • (3) Application of the compounds: for each concentration of the diluted series, the compound was applied in triplicate. In 100 μl/well. • (4) After the drug was added, the cells were incubated in the incubator for 120 h.
• (1) Preparation of detection reagents: CellTiter-Glo Luminescent Cell Viability Assay detection reagent was allowed to warm to room temperature with protection from light • (2) Cell preparation: The cells to be tested were taken out from the incubator and equilibrated at room temperature (25° C.) 30 min. • (3) ATP detection: Discard the culture medium and 100 μl/well DMEM was added, 50 μl/hole CTG was added into 96-well plate, protected from light using aluminum foil and oscillated using a vortex oscillator at room temperature of 200 rpm for 10 min. • (4) Detection procedure: After setting up the procedure, the black-wall clear-bottom plate was placed in the instrument without its cover. • (5) Data acquisition.
GraphPad software was used to process the data. […] If necessary, the relative biological activity of sample A, i.e., ratio activity was calculated. Dxd was used as the control sample for the ratio activity calculation.
Cell proliferation inhibition rate (%)=([…])/(luminescence value of blank control group−luminescence value of puro group)×100; wherein the puro group refers to the group treated with puromycin
R^2 Value ≥0.950; CV % between parallel pores ≤30%.

[2] = tested on: NCI-N87 HER2-high cell line; assay: Effect of HER2-targeting conjugates on cell proliferation (CellTiter-Glo), NCI-N87; settings: NCI-N87, 120 h
Procedure: (§1) Study Purpose: Cell viability was detected by CellTiter-Glo assay to evaluate the effects of the ADCs on the proliferation of two high HER2 tumor cell lines SK-BR-3, NCI-N87 and a HER2-negative tumor cell line MDA-MB-468, and to analyze the effects of the ADCs on the proliferation of tumor cells.
(§2) Positive control Puromycin: A stock solution of 10 mg/ml was used, and diluted with the cell medium. A dilution of 100-fold was preformed, and then a dilution of 10-fold was preformed when applying the compounds to reach the testing concentration 5 μg/ml for puromycin. • (4) Application of the compounds: for each concentration of the diluted series, the compound was applied in triplicate. […]

[3] = tested on: SK-BR-3 HER2-high cell line; assay: Effect of HER2-targeting conjugates on cell proliferation (CellTiter-Glo), SK-BR-3; settings: SK-BR-3, 120 h
Procedure: as §1, §2

Row | Structure (SMILES) | Ratio activity (%) [1] [%] | IC50 [2] [nM] | IC50 [3] [nM]
1 | CC[C@@]1(O)C(=O)OCc2c1cc1n(c2=O)Cc2c-1nc1cc(F)c(Cl)c3c1c2[C@@H](NC(=O)[C@H](O)C(F)(F)F)CC3 [C626] | 0.54 |  | 
2 | CC[C@@]1(O)C(=O)OCc2c1cc1n(c2=O)Cc2c-1nc1cc(F)c(Cl)c3c1c2[C@@H](NC(=O)CCCO)CC3 [C679] | 0.49 |  | 
3 | CC[C@@]1(O)C(=O)OCc2c1cc1n(c2=O)Cc2c-1nc1cc(F)c(C)c3c1c2[C@@H](NC(=O)CO)CC3 [Dxd] | 1 | 4.68 | 1.47
4 | CC[C@@]1(O)C(=O)OCc2c1cc1n(c2=O)Cc2c-1nc1cc(F)c(Br)c3c1c2[C@H](NC(=O)C[C@@H](C)O)CC3 [C602] | 0.29 |  | 
5 | CC[C@@]1(O)C(=O)OCc2c1cc1n(c2=O)Cc2c-1nc1cc(F)c(Cl)c3c1c2[C@H](N)CC3 [C731] | 0.82 |  | 
6 | CC[C@@]1(O)C(=O)OCc2c1cc1n(c2=O)Cc2c-1nc1cc(F)c(Br)c3c1c2[C@H](NC(=O)C[C@H](C)O)CC3 [C600] | 0.62 |  | 

Source: patent publication US20250064957A1, “EXATECAN DERIVATIVES, LINKER-PAYLOADS, AND CONJUGATES AND THEREOF” (priority 2021, published 2025)
